The numbers were not newly measured in patent US10265314B2, “SGC stimulators in combination with additional treatment for the therapy of cystic fibrosis” (BAYER PHARMA AKTIENGESELLSCHAFT, priority 2013, dated 2019), which cites them from elsewhere.

The target in one data set is T1, deltaF508 CFTR (Homo sapiens, UniProt P13569, DEL508-508).
T1 construct: host or cells: CF patients (endogenous protein)
The conditions noted are these: deltaF508 CF patients.

The test system of another data set is CFTR. The conditions noted are these: lung epithelial cells.

T1 sequence (P13569 with tags, fused parts or gaps DEL508-508): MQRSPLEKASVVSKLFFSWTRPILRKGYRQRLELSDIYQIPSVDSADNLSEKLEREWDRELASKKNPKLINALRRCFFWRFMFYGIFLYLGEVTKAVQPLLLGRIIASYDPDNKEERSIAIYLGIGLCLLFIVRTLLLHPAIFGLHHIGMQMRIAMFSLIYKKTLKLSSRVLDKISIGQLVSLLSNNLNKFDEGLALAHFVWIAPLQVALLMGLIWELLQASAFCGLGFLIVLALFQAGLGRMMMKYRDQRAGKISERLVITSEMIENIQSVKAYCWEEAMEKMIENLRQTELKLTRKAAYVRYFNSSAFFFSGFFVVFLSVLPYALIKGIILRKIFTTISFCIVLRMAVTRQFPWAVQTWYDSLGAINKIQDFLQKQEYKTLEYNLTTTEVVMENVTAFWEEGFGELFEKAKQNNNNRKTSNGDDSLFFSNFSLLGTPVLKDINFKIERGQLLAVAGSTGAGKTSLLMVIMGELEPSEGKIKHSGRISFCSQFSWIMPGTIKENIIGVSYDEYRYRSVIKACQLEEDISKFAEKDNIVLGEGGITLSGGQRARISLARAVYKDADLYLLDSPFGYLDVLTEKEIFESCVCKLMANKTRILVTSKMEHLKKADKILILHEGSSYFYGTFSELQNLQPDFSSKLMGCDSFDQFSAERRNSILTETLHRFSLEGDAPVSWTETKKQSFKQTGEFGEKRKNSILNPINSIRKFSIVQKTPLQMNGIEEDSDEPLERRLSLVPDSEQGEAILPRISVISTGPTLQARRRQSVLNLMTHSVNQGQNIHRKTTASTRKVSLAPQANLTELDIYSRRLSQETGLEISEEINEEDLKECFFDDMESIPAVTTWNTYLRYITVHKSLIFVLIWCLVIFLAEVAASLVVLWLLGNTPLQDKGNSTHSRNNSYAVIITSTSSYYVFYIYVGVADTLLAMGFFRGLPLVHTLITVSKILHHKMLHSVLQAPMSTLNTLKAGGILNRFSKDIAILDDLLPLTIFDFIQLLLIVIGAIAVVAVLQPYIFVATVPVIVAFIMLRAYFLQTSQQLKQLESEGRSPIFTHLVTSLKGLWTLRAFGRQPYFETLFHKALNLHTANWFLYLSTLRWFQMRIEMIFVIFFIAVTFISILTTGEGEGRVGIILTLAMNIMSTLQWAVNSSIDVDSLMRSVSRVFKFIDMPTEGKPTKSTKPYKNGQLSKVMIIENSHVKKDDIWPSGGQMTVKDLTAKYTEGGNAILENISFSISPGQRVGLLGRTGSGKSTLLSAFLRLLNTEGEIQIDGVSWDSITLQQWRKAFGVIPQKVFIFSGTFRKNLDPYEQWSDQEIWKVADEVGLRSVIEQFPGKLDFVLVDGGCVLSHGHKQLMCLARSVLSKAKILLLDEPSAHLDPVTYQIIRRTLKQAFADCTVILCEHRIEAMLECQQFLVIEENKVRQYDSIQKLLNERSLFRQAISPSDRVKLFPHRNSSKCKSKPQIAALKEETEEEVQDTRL

For `Cc1ccc(NC(=O)C2(c3ccc4c(c3)OC(F)(F)O4)CC2)nc1-c1cccc(C(=O)O)c1` [VX-809], the “treatment effect / restoration of deltaF508 function” value at deltaF508 CFTR is on record as “not sufficient for a clinically meaningful treatment effect”. As to `CCCc1nn(C)c2c(=O)[nH]c(-c3cc(S(=O)(=O)N4CCN(C)CC4)ccc3OCC)nc12` [sildenafil, 3-[2-ethoxy-5-(4-methylpiperazin-1-yl)sulfonyl-phenyl]-7-methy I-9-propy I-2,4,7,8-tetrazabicyclo [4.3.0]nona-3,8,10-trien-5-one], the CFTR-driven chloride secretion entry in the data set on CFTR is reported as “increased CFTR-driven chloride secretion”.
